Legend:
[1] = system: HIV-1; experiment: NCI in vitro anti-HIV drug screening test (protection of T4 lymphocytes from HIV cytolysis, XTT readout); type: cell-based; settings: T4 lymphocytes (CEM cell line) infected with HIV-1, 6 days, XTT formazan; numerical EC50/IC50/TI only in FIGS. 1-4
Description: The procedure used in the NCI's test for agents active against HIV is designed to detect agents acting at any stage of the virus reproductive cycle. The assay basically involves the killing of T4 lymphocytes by HIV. Small amounts of HIV are added to cells, and two cycles of virus reproduction are necessary to obtain the required cell killing. Agents that interact with virions, cells, or virus gene-products to interfere with vital activities will protect cells from cytolysis. All tests are done with at least one positive (e.g., AZT-treated) control done at the same time under identical conditions. The procedure is as follows:
Candidate agent was dissolved in dimethyl sulfoxide then diluted 1:100 in cell culture medium before preparing serial half-log10 dilutions. […]
Individual wells were analyzed spectrophotometrically to quantitate formazan production, and in addition were viewed microscopically for detection of viable cells and confirmation of protective activity. […]
The figures display a plot of the log10 of the sample's concentrations (as μg/mL or M) against the measured test values expressed as a percentage of the uninfected, untreated control values. […] The percent protection has been calculated from the data and is presented on the left side of the graph. […]

SMILES	melting point [°C]	activity against HIV [1]
Cc1ccc(S(=O)(=O)OCC2Cn3c(nc4ccccc43)-c3ccccc3O2)cc1 (centres unmarked)	165.5 to 166.5	
OCC1Cn2c(nc3ccccc32)-c2ccccc2O1 (centres unmarked)	142 to 143.5	
Cc1ccc(S(=O)(=O)OCC2Cn3c(nc4c(C)cccc43)-c3cccc(Cl)c3O2)cc1 (centres unmarked)	168 to 169	
CC(C)(C)C1Cn2c(nc3ccccc32)-c2ccccc2O1 (centres unmarked)	149 to 150	
Cc1cccc2c1nc1n2CC(CO)Oc2c(Cl)cccc2-1 (centres unmarked)	186.5 to 188	
C[C@H]1Cn2c(nc3c(C4OCCO4)cccc32)-c2c(cccc2[N+](=O)[O-])O1		confirmed active
Cc1cccc2c1nc1n2CC(C(C)(C)C)Oc2c(Cl)cccc2-1 (centres unmarked)	191 to 192	
CC(C)(C)C1Cn2c(nc3c(C4OCCO4)cccc32)-c2ccccc2O1 (centres unmarked)	200 to 201	
